pIC50: −log10 of the molar value.
Assays:
DDR2 = molecular target: T1, DDR2 (Homo sapiens, UniProt Q16832); test: LanthaScreen Eu-Kinase Binding Assay (TR-FRET tracer displacement), DDR2; settings: catalytic domain GST Tag DDR2; Kinase Tracer 178
T1 construct: The enzymes were purchased as a catalytic domain GST Tag DDR1(#PR6913A) and DDR2 (#PR7167A); purchased ThermoFisher PR7167A
T1 sequence (Q16832 563-849 limits assumed): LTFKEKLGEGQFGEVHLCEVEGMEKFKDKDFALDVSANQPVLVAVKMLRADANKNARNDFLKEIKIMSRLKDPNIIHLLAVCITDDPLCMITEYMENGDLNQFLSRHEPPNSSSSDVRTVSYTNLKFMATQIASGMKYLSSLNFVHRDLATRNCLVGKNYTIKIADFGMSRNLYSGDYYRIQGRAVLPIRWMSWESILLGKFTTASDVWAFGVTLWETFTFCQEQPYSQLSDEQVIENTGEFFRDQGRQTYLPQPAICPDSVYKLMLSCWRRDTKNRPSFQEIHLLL
Text: (§1) DDR1/2 binding assay: The binding assay relies on the LanthaScreen ™ Eu-Kinase Binding Assay (ThermoFisher Scientfic). This is a kinase assay platform based on measuring the binding and displacement of an Alexa Fluor® conjugate of an ATP-competitive kinase inhibitor or tracer at a kinase active site (Kinase Tracer 178. #PV5593). Binding of the tracer to the kinase is detected by addition of a europium (Eu)-labeled anti-GST antibody (#PV 5594) which specifically labels the kinase of interest. This binding results in a high degree of fluorescence resonance energy transfer (FRET), whereas displacement of the tracer with a kinase inhibitor results in a loss of FRET. The enzymes were purchased as a catalytic domain GST Tag DDR1(#PR6913A) and DDR2 (#PR7167A) from ThermoFisher. Assay conditions were as indicated by the kit manufacturers. Assays were performed in 384-well plates. The final read out was generated using an EnVision plate reader (Perkin-Elmer). The emission ratio was calculated by dividing the acceptor/tracer emission (665 nm) by the antibody/donor emission (615 nm). Values were plotted against the inhibitor concentration and fit to a sigmoid dose-response curve using Activity base by IDBS software.

DDR1 = molecular target: T2, DDR1 (Homo sapiens, UniProt Q08345); test: LanthaScreen Eu-Kinase Binding Assay (TR-FRET tracer displacement), DDR1; settings: catalytic domain GST Tag DDR1; Kinase Tracer 178
T2 construct: The enzymes were purchased as a catalytic domain GST Tag DDR1(#PR6913A); purchased ThermoFisher PR6913A
T2 sequence (Q08345 610-905 limits assumed): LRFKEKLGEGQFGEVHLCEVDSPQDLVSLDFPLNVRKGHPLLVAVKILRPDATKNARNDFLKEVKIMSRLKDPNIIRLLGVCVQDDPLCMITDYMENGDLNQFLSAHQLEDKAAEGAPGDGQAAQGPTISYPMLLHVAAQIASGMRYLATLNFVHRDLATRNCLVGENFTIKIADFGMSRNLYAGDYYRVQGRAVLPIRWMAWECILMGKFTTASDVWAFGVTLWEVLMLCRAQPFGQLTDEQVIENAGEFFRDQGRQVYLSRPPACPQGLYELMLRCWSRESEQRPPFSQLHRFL
Text: as §1

Row | pIC50 (DDR2) | pIC50 (DDR1) | SMILES
1 | 7.48 | 7.90 | CC(C)c1cc(=O)n2c(-c3ccccc3)c(-c3ccnc(Nc4cccc(N5CCN(CCO)CC5)c4)n3)sc2n1 [Compound 73, 2-(2-{3-[4-(2-Hydroxy-ethyl)-piperazin-1-yl]-phenylamino}-pyrimidin-4-yl)-7-isopropyl-3-phenyl-thiazolo[3,2-a]pyrimidin-5-one]
2 | 5.06 | 5.16 | COc1cnc(Nc2cccc(S(N)(=O)=O)c2)nc1-c1sc2nccc(=O)n2c1-c1ccccc1 [Compound 69, 3-[5-Methoxy-4-(5-oxo-3-phenyl-5H-thiazolo[3,2-a]pyrimidin-2-yl)-pyrimidin-2-ylamino]-benzenesulfonamide]
3 | 6.53 | 7.19 | Cc1nc2sc(-c3ccnc(Nc4cccc(N5CCN(CCO)CC5)c4)n3)c(-c3ccccc3)n2c(=O)c1C(C)C [Compound 76, 2-(2-{3-[4-(2-Hydroxy-ethyl)-piperazin-1-yl]-phenylamino}-pyrimidin-4-yl)-6-isopropyl-7-methyl-3-phenyl-thiazolo[3,2-a]pyrimidin-5-one]

— patent EP4032896A1, “THIAZOLOPYRIMIDONES AS INHIBITORS OF DDR1/2 AND THERAPEUTIC USES THEREOF” (Fundación del Sector Público Estatal Centro Nacional de …, priority 2021, dated 2022)
